Measured values published in patent US5561110A, “Method for the treatment of the complications and pathology of diabetes” (Peptide Technology Limited, priority 1994, dated 1996).
“Also recorded” adds a separate entry of the source.

Legend:
[1] = test system: Male New Zealand white cross rabbits fed a high cholesterol (2%) diet; assay: Atherosclerotic plaque formation in aorta of cholesterol-fed rabbits; format: in vivo, rabbit; settings: 8 weeks
Description: (§1) Male New Zealand white cross rabbits fed a high cholesterol (2%) diet were randomised to control or carnosine treatment 2% and plasma was assayed for cholesterol and triglycerides and carnosine. All animals received 100 g of food pellets/day and free access to water.
(§2) At the end of the 8 week treatment period, the rabbits were anaesthetised with pentobarbitone (325 mg/kg) and the total aorta removed. The arch, thoracic and abdominal regions were isolated by cutting the aorta circumferentially 1.0 cm proximal to the first pair of intercostal arteries and 0.3 cm above the coeliac artery. The adventitia was carefully dissected away, and the artery longitudinally cut to expose the intimal surface. The aorta was fixed in 10% buffered formalin for 48 hours. The lipid plaques in these vessels were then stained using Sudan IV and mounted with an aqueous mounting medium (Kaiser's Glycerol Jelly). The lesioned areas were directly traced from the mounted sections using an image analyser (Eye Com 850 image processor). Computer-aided planimetry was used to macroscopically determine the percentage of the affected area. Representative segments of atherosclerotic plaque were removed for confirmation by light microscopy. Results are expressed as mean ±SEM.
Coronary heart disease is one of the most common causes of deaths in diabetics and non-diabetics alike. […]

mammals = settings: cited from earlier work
[2] = Body weight and organ weights of cholesterol-fed rabbits; format: in vivo, rabbit
Description: as §1, §2

[3] = test system: streptozotocin induced diabetic rat; assay: Formation of cataracts in streptozotocin induced diabetic rats; format: in vivo; settings: after 8 week on carnosine diet (56 days), 2% in drinking water
Description: (§3) Male Sprague-Dawley rats weighing 200-250 g and 6 weeks of age were randomised to the following three treatment groups: control, diabetic, and carnosine-treated diabetic rats. Diabetes was induced with streptozotozen STZ(60 mg/kg body weight in citrate buffer, pH 4.5, i.v.), and all animals with plasma glucose levels >20 mM after 1 week were included in the study. Diabetic rats were randomised to receive either no therapy or 2% carnosine in drinking water.
Cataract is an opacification of the ocular lens sufficient to impair vision. Diabetes has been associated with cataract for many years and many laboratory experiments support the view that diabetes is the cause of one form of cataract. Diabetes in animals can be induced by streptozotozin and opacity of the lens starts to develop by 20 days after injection but dense opacities appear only after about 100 days depending on age at injection.
In cataract adducts of sugars to proteins including lens proteins have been identified and quantified. In most tissues there is little accumulation of late Maillard products even in diabetes but proteins in the lens nucleus have time not only to accumulate early glycation products but also for them to change into yellow Maillard products. […] Since this was measured at 56 days, the half way mark of the experiment, the trend indicates a reduction in cataract formation by carnosine feeding.

bovine serum albumin = assay: Dihydroxyacetone-induced modification (non-enzymic glycosylation, gel formation) of bovine serum albumin; format: biochemical; settings: BSA 50 mg/ml, 250 mM dihydroxyacetone, 250 mM L-carnosine, 23° C., 4 weeks
Description: Physiological concentrations of bovine serum albumin (50 mg/ml in 50 mM Na-phosphate buffer pH 7.0) were incubated with or without 250 mM dihydroxyacetone in the presence and absence of 250 mM L-carnosine at 23° C. for 4 weeks. The experiment was performed under sterile conditions and the ionic strength was the same in all vials.

[4] = test system: streptozotocin induced diabetic rat; assay: Albuminuria, glycated haemoglobin and blood glucose in diabetic rats; format: in vivo; settings: week 8
Description: as §3

ovalbumin = assay: Glycation of ovalbumin by DHA with anti-glycator, gel filtration on Superose 6; format: biochemical; settings: for effectiveness as anti-glycator, in words: ovalbumin + DHA, 60° C., 7 hours
Description: Gelfiltration Chromatography of Glycated Proteins HPLC Specifications:
COLUMN Superose 6, Pharmacia
SAMPLE: 100μ of Protein Sample (Approximately 100 μg)
Calibration was performed using Pharmacia high molecular weight (HMW) and low molecular weight (LMW) calibration kit.
To compare the effect of both carnosine and aminoguanidine on glycation bovine serum albumin (BSA) and ovalbumin was incubated with a constant amount of DHA and varying concentrations of either anti-glycator at 60° C. At the start of the reaction and after seven hours aliquots were taken and the progress of the reaction analysed by gel filtration on a Superose 6 column. Crosslinking or fragmentation of protein became clearly visible as a change in retention time compared to the untreated protein used as control. Some compounds eluted after theoretical retention time for the smallest compound. They tend to interfere with the column resin even at high ionic strength and presence of a detergent (Tween 20). They are not necessary small compounds but rather highly charged and reactive. […] In all aminoguanidine samples uncharacterised reaction products are formed predominantly at high concentrations (described as low molecular weight form "LMW" because the retention time is longer then observed for all other compounds). […] LMW were also observed when ovalbumin was replaced by bovine serum albumin in the incubation mixture (not shown). The LMW forms were never present in the camosine samples. A good measure for the effectiveness of an
Legend: ovalbumin was incubated with DHA for 7 hours in the presence of
various concentrations of either carnosine or aminoguanidine. Reaction
products were separated on a gelfiltration column (Superose 6) and peaks
grouped according to their retention times: HMW, high molecular weight
(15-30 min); albumin monomer (35 min); and late eluting compounds LMW, lo
molecular weight (>40 min). Carnosine and aminoguanidine concentration
[control] 0 mM, [A] 600 mM, [B] 300 mn, [C] 100 mM, [D] 50 mM.

[5] = test system: Salmonella typhimurium TA 100; assay: Ames test, plate incorporation, his- to his+ reversion
Description: Preparation of glycated compounds was performed according to Kim et al. (1991). In brief, D-glucose (1M) and each of the following: L-carnosine, L-lysine, L-alanine (all 1M) were dissolved in distilled water, the pH adjusted to 7 and the mixtures heated at 100° C. for 80 min. The solutions (50 μl and 250 μl ) were evaluated against strain TA 100 of Salmonells typhimurium using the plate incorporation method (Maron & Ames, 1983) with or without metabolic activation by a standard rat liver microsomal (S-9) preparation.
Salmonella tyrphimurium TA 100 indicator strain his^- to his^+ reversion system. Data represent the mean number of revertants per plate and their standard deviation for the test solutions and controls with and without metabolic stimulation by rat liver microsomal (S-9) preparation.

diabetic models = settings: 30 weeks of feeding; cited from earlier work

NCCC(=O)N[C@@H](Cc1cnc[nH]1)C(=O)O [carnosine, β-alanyl-L-histidine]
atherosclerotic plaque formation, in words [1]: can reduce but not prevent plaque formation
toxicity, in words (mammals; in vivo): virtually non-toxic
level that can be administered (mammals; mammals): 5-10 g/kg body weight
body weight versus control, in words ([2]; 8 week treatment period): no difference
weight of various organs versus control, in words ([2]; 8 weeks): No difference
Body Weight ([2]; Week 0): 3.33 ± 0.09 kg
Body Weight ([2]; Week 8): 2.68 ± 0.12 kg
Weight of organs, Heart ([2]; after 8 weeks treatment): 6.12 ± 0.27 g
Weight of organs, Kidney ([2]; after 8 weeks treatment): 17.53 ± 0.69 g
Weight of organs, Liver ([2]; after 8 weeks treatment): 124.40 ± 6.36 g
lens clarity compared to diabetic control group [3]: higher clarity (less opacity)
Resultant effects (appearance of albumin incubation) (bovine serum albumin): dark brown, fluid; also recorded: remained fluid
Blood Glucose (mean + SEM) [4]: 22.63 ± 3.00 mM
Percent Glycated Haemoglobin (HbAlc) [4]: 4.49 ± 0.14%
Percent Area of Chromatogram, HMW (ovalbumin; after 7 hours, [A] 600 mM): 9%
Percent Area of Chromatogram, LMW (ovalbumin; after 7 hours, [A] 600 mM): 0%
Percent Area of Chromatogram, Monomer (ovalbumin; after 7 hours, [A] 600 mM): 91%
Percent Area of Chromatogram, HMW (ovalbumin; after 7 hours, [B] 300 mn): 6%
Percent Area of Chromatogram, LMW (ovalbumin; after 7 hours, [B] 300 mn): 0%
Percent Area of Chromatogram, Monomer (ovalbumin; after 7 hours, [B] 300 mn): 94%
Percent Area of Chromatogram, HMW (ovalbumin; after 7 hours, [C] 100 mM): 3%
Percent Area of Chromatogram, LMW (ovalbumin; after 7 hours, [C] 100 mM): 0%
Percent Area of Chromatogram, Monomer (ovalbumin; after 7 hours, [C] 100 mM): 97%
Percent Area of Chromatogram, HMW (ovalbumin; after 7 hours, [D] 50 mM): 25%
Percent Area of Chromatogram, LMW (ovalbumin; after 7 hours, [D] 50 mM): 0%
Percent Area of Chromatogram, Monomer (ovalbumin; after 7 hours, [D] 50 mM): 75%
effectiveness as anti-glycator, in words (ovalbumin): more effective at all concentrations compared to aminoguanidine
effectiveness as anti-glycator, in words (ovalbumin; listed as Carnosine): reduced formation of high molecular weight compounds and was slightly more effective at low concentration compared to aminoguanidine
Percent Area of Chromatogram, HMW (ovalbumin; t0 hours, [A] to [D] 600-50 mM): 0%
Percent Area of Chromatogram, LMW (ovalbumin; t0 hours, [A] to [D] 600-50 mM): 0%
Percent Area of Chromatogram, Monomer (ovalbumin; t0 hours, [A] to [D] 600-50 mM): 100%
Revertants per Plate with TA 100, With S-9 ([5]; Dose 50 μl): 179 ± 15
Revertants per Plate with TA 100, Without S-9 ([5]; Dose 50 μl): 154 ± 14
Revertants per Plate with TA 100, With S-9 ([5]; Dose 250 μl): 149 ± 13
Revertants per Plate with TA 100, Without S-9 ([5]; Dose 250 μl): 158 ± 11
mutagenicity ([5]; TA 100, with or without S-9): not mutagenic

CC(=O)Nc1ccc2c(c1)Cc1ccccc1-2 [2AAF, reference compound]
Revertants per Plate with TA 100, With S-9 ([5]; positive control, dose not given): 500

N=C(N)NN [Aminoguanidine, aminoguanidine, reference compound]
amount of glycated haemoglobin (diabetic models): does not reduce
Percent Area of Chromatogram, HMW (ovalbumin; after 7 hours, [A] 600 mM): 0%
Percent Area of Chromatogram, LMW (ovalbumin; after 7 hours, [A] 600 mM): 69%
Percent Area of Chromatogram, Monomer (ovalbumin; after 7 hours, [A] 600 mM): 31%
Percent Area of Chromatogram, HMW (ovalbumin; after 7 hours, [B] 300 mn): 8%
Percent Area of Chromatogram, LMW (ovalbumin; after 7 hours, [B] 300 mn): 72%
Percent Area of Chromatogram, Monomer (ovalbumin; after 7 hours, [B] 300 mn): 20%
Percent Area of Chromatogram, HMW (ovalbumin; after 7 hours, [C] 100 mM): 0%
Percent Area of Chromatogram, LMW (ovalbumin; after 7 hours, [C] 100 mM): 49%
Percent Area of Chromatogram, Monomer (ovalbumin; after 7 hours, [C] 100 mM): 41%
Percent Area of Chromatogram, HMW (ovalbumin; after 7 hours, [D] 50 mM): 38%
Percent Area of Chromatogram, LMW (ovalbumin; after 7 hours, [D] 50 mM): 22%
Percent Area of Chromatogram, Monomer (ovalbumin; after 7 hours, [D] 50 mM): 40%
Percent Area of Chromatogram, HMW (ovalbumin; t0 hours, [A] to [D] 600-50 mM): 0%
Percent Area of Chromatogram, LMW (ovalbumin; t0 hours, [A] to [D] 600-50 mM): 0%
Percent Area of Chromatogram, Monomer (ovalbumin; t0 hours, [A] to [D] 600-50 mM): 100%
